Assay results taken from patent US20210300943A1, “OGA INHIBITOR COMPOUNDS” (Janssen Pharmaceutica NV, priority 2018, published 2021).

Molecular target: T1, recombinant human Meningioma Expressed Antigen 5 (MGEA5), also referred to as O-GlcNAcase (OGA) (Homo sapiens, UniProt O60502)
T1 construct: Full length OGA enzyme was purchased at OnGene (cat #TP322411); purchased OnGene (so in the source)
T1 sequence (O60502 1-916): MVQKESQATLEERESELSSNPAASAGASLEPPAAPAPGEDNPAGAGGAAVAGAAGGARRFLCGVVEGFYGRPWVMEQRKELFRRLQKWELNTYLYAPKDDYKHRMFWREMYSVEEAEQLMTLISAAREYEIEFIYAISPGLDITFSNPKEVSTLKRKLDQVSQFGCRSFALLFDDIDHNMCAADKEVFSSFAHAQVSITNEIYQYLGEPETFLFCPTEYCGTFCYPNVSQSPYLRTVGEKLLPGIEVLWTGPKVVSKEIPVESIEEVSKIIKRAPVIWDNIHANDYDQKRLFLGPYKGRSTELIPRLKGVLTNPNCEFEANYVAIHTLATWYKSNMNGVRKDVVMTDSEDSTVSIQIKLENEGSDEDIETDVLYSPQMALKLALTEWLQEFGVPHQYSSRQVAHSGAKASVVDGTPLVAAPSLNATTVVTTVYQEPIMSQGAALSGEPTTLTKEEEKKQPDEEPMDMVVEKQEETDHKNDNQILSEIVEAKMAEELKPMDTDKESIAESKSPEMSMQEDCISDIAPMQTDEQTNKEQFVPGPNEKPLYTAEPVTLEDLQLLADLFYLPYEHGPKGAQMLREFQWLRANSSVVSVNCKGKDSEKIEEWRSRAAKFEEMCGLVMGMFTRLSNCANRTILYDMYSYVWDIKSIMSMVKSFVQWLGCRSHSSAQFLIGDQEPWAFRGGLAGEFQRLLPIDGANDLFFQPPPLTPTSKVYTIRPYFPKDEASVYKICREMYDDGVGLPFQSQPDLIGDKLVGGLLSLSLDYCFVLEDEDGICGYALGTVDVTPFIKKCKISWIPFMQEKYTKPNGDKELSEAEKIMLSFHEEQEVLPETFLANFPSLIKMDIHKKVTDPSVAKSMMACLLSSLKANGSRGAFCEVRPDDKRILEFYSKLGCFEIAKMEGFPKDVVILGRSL
Test: OGA biochemical assay (inhibition of FM-GlcNAc hydrolysis, fluorescence)
Conditions: for Emax: maximal effect, read-out: Enzymatic Emax (%); for IC50: read-out: Enzymatic hOGA, pIC50 (converted)
Procedure, shortened: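 Full-length recombinant OGA (2 nM) pre-incubated with compound 60 min at room temperature, then FM-GlcNAc (100 µM final) added in citrate/phosphate buffer pH 7.2 with 0.005% Tween-20. After 6 h at room temperature, stopped with carbonate pH 11.0; fluorescein read at 485/538 nm; IC50 and Hill coefficient from curve fit.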

Compound	Emax [%]	IC50 [nM]
Cc1cc([C@H]2CCCN(C(C)c3cnc4c(c3)OCCN4)C2)cc(C)n1 (single isomer, unassigned) [Product 135]	101	7.94
Cc1cc(OC[C@H]2CCCN(C(C)c3nc4c(cc3F)OCCO4)C2)cc(C)n1 (single isomer, unassigned) [Product 155]	99	1.26
